# ChEMBL document CHEMBL1137268, “2-Aminoquinoline melanin-concentrating hormone (MCH)1R antagonists” (Bioorg Med Chem Lett, 2006)
# How the values were obtained:
# [1] = molecular target: T1, Melanin-concentrating hormone receptor 1 (Rattus norvegicus, UniProt P97639); assay: […] of IP3-coupled mobilization of calcium in HEK293 cells expressing rat MCH-R1; assay type: functional, cell-based
# [2] = molecular target: T2, Melanin-concentrating hormone receptor 1 (Homo sapiens, UniProt Q99705); assay: Displacement of 125I-[Phe13,Tyr19]-MCH from human MCH-R1
# [3] = molecular target: Melanin-concentrating hormone receptor 2 (Homo sapiens) (UniProt Q969V1); assay: Inhibition of 125I-[Phe13,Tyr19]-MCHbinding to human MCH-R2; settings: concentration not given here
# [4] = molecular target: T2, Melanin-concentrating hormone receptor 1; assay: Inhibition of 125I-[Phe13,Tyr19]-MCH binding to human MCH-R1 at 5uM
# [5] = Half-life in rats; assay type: ADME, organism-based; settings: rat, in vivo
# [6] = Volume of distribution in rats; assay type: ADME, organism-based; settings: rat, in vivo; read-out: Vdss
# [7] = molecular target: Melanin-concentrating hormone receptor 1 (Rattus norvegicus) (UniProt P97639); assay: Inhibition of 125I-[Phe13,Tyr19]-MCH binding to rat MCH-R1 at 5uM
# [8] = Rat Clp; assay type: ADME, organism-based; settings: plasma, read-out: Clp
# [9] = molecular target: T1, Melanin-concentrating hormone receptor 1; assay: Displacement of 125I-[Phe13,Tyr19]-MCH from rat MCH-R1
# Rattus norvegicus = species on record: Rattus norvegicus; assay: Decreased overnight food intake in continuously infused rats on high-fat diet; assay type: functional
# T2 sequence (Q99705 whole entry): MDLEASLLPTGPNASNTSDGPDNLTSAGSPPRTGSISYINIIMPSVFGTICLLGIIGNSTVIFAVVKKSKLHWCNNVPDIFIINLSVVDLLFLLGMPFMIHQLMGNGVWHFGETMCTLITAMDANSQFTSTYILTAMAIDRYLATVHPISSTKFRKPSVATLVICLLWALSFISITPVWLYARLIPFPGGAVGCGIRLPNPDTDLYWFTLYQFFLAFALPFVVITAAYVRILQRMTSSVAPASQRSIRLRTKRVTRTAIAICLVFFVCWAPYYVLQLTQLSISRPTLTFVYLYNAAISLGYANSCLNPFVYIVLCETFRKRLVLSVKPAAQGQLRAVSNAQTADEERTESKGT
# Chain of Melanin-concentrating hormone receptor 2 (Homo sapiens) (Q969V1 whole entry): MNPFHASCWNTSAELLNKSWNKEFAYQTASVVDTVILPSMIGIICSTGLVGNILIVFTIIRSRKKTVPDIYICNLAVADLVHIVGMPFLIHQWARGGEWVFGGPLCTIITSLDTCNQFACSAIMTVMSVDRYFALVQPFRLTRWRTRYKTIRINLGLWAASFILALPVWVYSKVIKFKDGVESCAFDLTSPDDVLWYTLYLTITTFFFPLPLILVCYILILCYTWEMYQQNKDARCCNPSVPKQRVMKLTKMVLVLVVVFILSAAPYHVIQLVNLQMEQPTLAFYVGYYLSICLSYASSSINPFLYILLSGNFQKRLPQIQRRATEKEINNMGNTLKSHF
# T1 sequence (P97639 whole entry): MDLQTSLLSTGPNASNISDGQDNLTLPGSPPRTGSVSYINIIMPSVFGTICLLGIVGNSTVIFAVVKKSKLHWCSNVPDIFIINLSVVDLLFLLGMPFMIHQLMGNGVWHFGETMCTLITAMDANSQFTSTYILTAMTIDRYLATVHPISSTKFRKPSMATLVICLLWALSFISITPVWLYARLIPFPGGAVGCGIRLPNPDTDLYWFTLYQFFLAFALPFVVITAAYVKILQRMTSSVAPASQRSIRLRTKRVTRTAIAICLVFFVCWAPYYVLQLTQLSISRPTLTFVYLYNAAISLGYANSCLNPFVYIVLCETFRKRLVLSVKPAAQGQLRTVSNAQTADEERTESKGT
# Chain of Melanin-concentrating hormone receptor 1 (Rattus norvegicus) (P97639 whole entry): as above
Structure (SMILES),EC50 [1],IC50 [2],inhibition [3],further results
O=C(CCc1ccc(C(F)(F)F)cc1)Nc1ccc2nc(N3CC4CC3CO4)ccc2c1 (stereo unspecified),70 nM,13 nM,–,–
Nc1ccc2cc(NC(=O)CCc3ccc(C(F)(F)F)cc3)ccc2n1,720 nM,240 nM,< 50%,–
NC1CCN(c2ccc3cc(NC(=O)CCc4ccc(C(F)(F)F)cc4)ccc3n2)C1 (stereo unspecified),200 nM,12 nM,–,–
CN(C)c1ccc2cc(NC(=O)CCc3ccc(C(F)(F)F)cc3)ccc2n1,110 nM,13 nM,< 50%,–
CCCc1cc(N(C)C)c2cc(NC(=O)CCc3ccc(C(F)(F)F)cc3)ccc2n1,–,12 nM,–,–
O=C(Nc1ccc2nc([N+]34CCC(CC3)CC4)ccc2c1)c1ccc(C(F)(F)F)nc1,> 10000 nM,–,–,inhibition [4]: 30%; half-life [5]: 66 min; Vd [6]: 3.92 L/kg; inhibition [7]: 20%; clearance [8]: 57 mL/min/kg
O=C(CCc1ccc(C(F)(F)F)cc1)Nc1ccc2nc(N3CCCCCC3)ccc2c1,1800 nM,36 nM,< 50%,–
CN(c1ccc2cc(NC(=O)CCc3ccc(C(F)(F)F)cc3)ccc2n1)C1CCCCC1,1200 nM,18 nM,< 50%,–
O=C(CCc1ccc(C(F)(F)F)cc1)Nc1ccc2nc(N3CCC(c4ccccc4)C3)ccc2c1 (stereo unspecified),1770 nM,25 nM,–,–
O=C(CCc1ccc(C(F)(F)F)cc1)Nc1ccc2nc(N3CCCCC3)ccc2c1,110 nM,12 nM,< 50%,–
CCCN(CCC)c1ccc2cc(NC(=O)CCc3ccc(C(F)(F)F)cc3)ccc2n1,–,490 nM,< 50%,–
CNc1ccc2cc(NC(=O)CCc3ccc(C(F)(F)F)cc3)ccc2n1,330 nM,20 nM,< 50%,–
O=C(CCCCCCCCCCCCc1ccc(C(F)(F)F)cc1)Nc1ccc2nc([N+]34CCC(CC3)CC4)ccc2c1,25 nM,5 nM,–,IC50 [9]: 13 nM; half-life [5]: 36 min; Vd [6]: 1 L/kg; clearance [8]: 36 mL/min/kg; Reduced food intake (Rattus norvegicus): 26%
CCN(CC)c1ccc2cc(NC(=O)CCc3ccc(C(F)(F)F)cc3)ccc2n1,830 nM,88 nM,< 50%,–
O=C(CCc1ccc(C(F)(F)F)cc1)Nc1ccc2nc(N3CC4CC3CN4)ccc2c1 (stereo unspecified),490 nM,210 nM,–,–
COC(=O)C1CCCN1c1ccc2cc(NC(=O)CCc3ccc(C(F)(F)F)cc3)ccc2n1 (stereo unspecified),580 nM,800 nM,–,–
CN(c1ccccc1)c1ccc2cc(NC(=O)CCc3ccc(C(F)(F)F)cc3)ccc2n1,–,3700 nM,< 50%,–

# Continued by falling IC50 [2], values first:
EC50 [1],IC50 [2],inhibition [3],Structure (SMILES),further results
140 nM,10 nM,< 50%,CCCN(C)c1ccc2cc(NC(=O)CCc3ccc(C(F)(F)F)cc3)ccc2n1,–
110 nM,10 nM,–,O=C(CCc1ccc(C(F)(F)F)cc1)Nc1ccc2nc(N3CCC(NC(=O)c4ccccc4)C3)ccc2c1 (stereo unspecified),–
30 nM,6 nM,–,CNC(=O)NC1CCN(c2ccc3cc(NC(=O)CCc4ccc(C(F)(F)F)cc4)ccc3n2)C1 (stereo unspecified),–
270 nM,5 nM,–,CC1CCCN1c1ccc2cc(NC(=O)CCc3ccc(C(F)(F)F)cc3)ccc2n1 (stereo unspecified),–
440 nM,5 nM,–,CC(=O)NC1CCN(c2ccc3cc(NC(=O)CCc4ccc(C(F)(F)F)cc4)ccc3n2)C1 (stereo unspecified),–
56 nM,4 nM,< 50%,O=C(CCc1ccc(C(F)(F)F)cc1)Nc1ccc2nc(N3CCC3)ccc2c1,–
50 nM,3 nM,–,CS(=O)(=O)NC1CCN(c2ccc3cc(NC(=O)CCc4ccc(C(F)(F)F)cc4)ccc3n2)C1 (stereo unspecified),–
320 nM,3 nM,< 50%,O=C(CCc1ccc(C(F)(F)F)cc1)Nc1ccc2nc(N3CCCC3)ccc2c1,EC50 ([1]; hek293): 320 nM
190 nM,3 nM,< 50%,O=C(CCc1ccc(C(F)(F)F)cc1)Nc1ccc2nc(N3CC4CCC3CC4)ccc2c1,–
350 nM,2 nM,< 50%,CN(c1ccc2cc(NC(=O)CCc3ccc(C(F)(F)F)cc3)ccc2n1)C1CCCC1,–
400 nM,2 nM,–,CC1CCN(c2ccc3cc(NC(=O)CCc4ccc(C(F)(F)F)cc4)ccc3n2)C1 (stereo unspecified),–
140 nM,2 nM,< 50%,CC(C)N(C)c1ccc2cc(NC(=O)CCc3ccc(C(F)(F)F)cc3)ccc2n1,–
90 nM,1 nM,–,CC(C)C(=O)NC1CCN(c2ccc3cc(NC(=O)CCc4ccc(C(F)(F)F)cc4)ccc3n2)C1 (stereo unspecified),–
150 nM,1 nM,–,O=C(CCc1ccc(C(F)(F)F)cc1)Nc1ccc2nc(N3CC4CCC3C4)ccc2c1 (stereo unspecified),–
140 nM,0.5 nM,–,O=C(CCc1ccc(C(F)(F)F)cc1)Nc1ccc2nc(N3CCC4(CCNC4)C3)ccc2c1 (stereo unspecified),–
